The values that follow come from patent US20230391781A1, “MALT1 MODULATORS AND USES THEREOF” (Rheos Medicines, Inc., priority 2020, published 2023).

A short description of data set [1]: High Throughput Dialysis (HTD) Human Plasma Protein Binding Assay. It counts as in vitro ADME. Conditions: pooled human plasma, pH 7.4, equilibrium dialysis, 37° C., read-out: Human PPB (% Unbound). As to the method:
Human plasma protein binding of various compounds of formula (I) were evaluated using the equilibrium dialysis method described herein.
The dialysis membrane strips (HTD % a/b, catalog number 1101, HTDialysis LLC, Gales Ferry, CT, USA) were soaked in ultra-pure water at room temperature for approximately 1 hour. Each membrane strip containing 2 membranes was separated and soaked in 20:80 ethanol/water (v/v) for approximately 20 minutes, after which they were ready for use or were stored in the solution at 2-8° C. for up to a month. Prior to the experiment, the membrane was rinsed three times and soaked for 20 minutes in ultra-pure water.
On the day of experiment, the human plasma (BiolVT, catalog number […], sodium heparin or EDTA-K2 anticoagulant, multiple individuals pooled) was thawed by running under cold tap water and centrifuged at 3220 rpm for 5 minutes to remove any clots. The pH value of the resulting plasma was confirmed to be 7.0-8.0.
The test compounds and warfarin control (Stru Chem, catalog number SC-16139) were dissolved in dimethyl sulfoxide (DMSO) to obtain 10 mM stock solutions. DMSO working solutions were prepared at 400 μM. To prepare the loading matrix, the compound working solutions (5 μL) were added in a 1:200 ratio to blank human plasma (995 μL) and mixed thoroughly.
The time zero (T0) samples to be used for recovery determination were prepared as follows: 50 μL aliquots of loading matrix were transferred in triplicate to the sample collection plate. The samples were immediately matched with opposite blank buffer (basic solution (14.2 g/L Na2HPO4 and 8.77 g/L NaCl in deionized water) titrated with acidic solution (15.6 g/L NaH2PO4·2H2O and 8.77 g/L NaCl in deionized water) to pH 7.4±0.1) to obtain a final volume of 100 μL of 1:1 matrix/dialysis buffer (v/v) in each well. 500 μL stop solution (200 ng/mL tolbutamide and 200 ng/mL labetalol in acetonitrile) were added to these TO samples. They were then stored at 2-8° C. for further processing along with other post-dialysis samples.
To load the dialysis device (96-well equilibrium dialysis plate, model 96b, catalog number 1006. HTDialysis LLC, Gales Ferry, CT, USA), an aliquot of 150 μL of the loading matrix was transferred to the donor side of each dialysis well in triplicate, and 150 μL of the dialysis buffer was loaded to the receiver side of the well. The dialysis plate was placed in a humidified incubator at 37° C. with 5% CO2 on a shaking platform that rotated slowly (about 100 rpm) for 4 hours.
At the end of the dialysis, aliquots of 50 μL of the samples were taken from both the buffer side and the matrix side of the dialysis device. These samples were transferred into new 96-well plates (polypropylene, 2.2 mL/well, catalog number DWP-22-96-SQ-U-C-L. Apricot). Each sample was mixed with an equal volume of opposite blank matrix (buffer or matrix) to reach a final volume of 100 μL of 1:1 matrix/dialysis buffer (v/v) in each well. All samples were further processed by adding 500 μL of stop solution containing internal standards. The mixture was vortexed and centrifuged at 4000 rpm for about 20 minutes. An aliquot of 100 μL of supernatant of all the samples was then removed for LC-MS/MS analysis. Test compound concentrations in matrix and buffer samples were expressed as peak area ratios (PAR) of analyte/internal standard (no standard curve).
The single blank samples were prepared by transferring 50 μL of blank matrix to a 96 well plate (polypropylene. 2.2 mL/well, catalog number DWP-22-96-SQ-U-C-L, Apricot) and adding 50 μL of blank PBS buffer to each well. The blank plasma must match the species of plasma used in the plasma side of the well. Then the matrix-matched samples were further processed by adding 500 μL of stop solution containing internal standards, following the same sample processing method as the dialysis samples. […]
On the technique in general: In equilibrium dialysis free small molecules cross a membrane that holds back macromolecules.

Data set [2] deals with IL-2 in Jurkat (ATCC, clone E6.1) cells stimulated with anti-CD3/28/2. Description: Jurkat IL-2 Assay. The format is cell-based. Conditions: Homo sapiens; IL-2 inhibition, Jurkat cells, 30 min compound then anti-CD3/28/2 stimulation for 24 hours; mean value if tested more than once; read-out: IC50. The procedure, abridged: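 Jurkat E6.1 T cells in RPMI/10% FBS (below passage 25) were preincubated with a compound dose-response for 30 min, then stimulated with soluble anti-CD3/28/2 for 24 h. IL-2 in the supernatant was measured by MSD immunoassay and viability by CellTiter-Glo luminescence. IC50 came from a 4-parameter fit, reported as ranges, with the mean used where tested repeatedly.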

For the next data set, the target named is full length MALT1 (Homo sapiens (Human), UniProt Q9UDY8). Description: MALT1 Biochemical Assay. Conditions: 15 nM enzyme, 30 μM peptide substrate Ac-Leu-Arg-Ser-Arg-Rh110-dPro, 30 min pre-incubation, 60 min reaction; mean value if tested more than once. The procedure, abridged: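 Full-length human MALT1 was pre-incubated with compound for 30 min, then cleaved a fluorogenic peptide for 60 min in 50 mM Hepes pH 7.5 with 0.8 M sodium citrate and 1 mM DTT. The reaction was quenched with 10 mM iodoacetate and fluorescence was read at 485/520 nm. IC50 came from four-parameter logistic fits of percent inhibition.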
Chain of full length MALT1 (Q9UDY8 whole entry): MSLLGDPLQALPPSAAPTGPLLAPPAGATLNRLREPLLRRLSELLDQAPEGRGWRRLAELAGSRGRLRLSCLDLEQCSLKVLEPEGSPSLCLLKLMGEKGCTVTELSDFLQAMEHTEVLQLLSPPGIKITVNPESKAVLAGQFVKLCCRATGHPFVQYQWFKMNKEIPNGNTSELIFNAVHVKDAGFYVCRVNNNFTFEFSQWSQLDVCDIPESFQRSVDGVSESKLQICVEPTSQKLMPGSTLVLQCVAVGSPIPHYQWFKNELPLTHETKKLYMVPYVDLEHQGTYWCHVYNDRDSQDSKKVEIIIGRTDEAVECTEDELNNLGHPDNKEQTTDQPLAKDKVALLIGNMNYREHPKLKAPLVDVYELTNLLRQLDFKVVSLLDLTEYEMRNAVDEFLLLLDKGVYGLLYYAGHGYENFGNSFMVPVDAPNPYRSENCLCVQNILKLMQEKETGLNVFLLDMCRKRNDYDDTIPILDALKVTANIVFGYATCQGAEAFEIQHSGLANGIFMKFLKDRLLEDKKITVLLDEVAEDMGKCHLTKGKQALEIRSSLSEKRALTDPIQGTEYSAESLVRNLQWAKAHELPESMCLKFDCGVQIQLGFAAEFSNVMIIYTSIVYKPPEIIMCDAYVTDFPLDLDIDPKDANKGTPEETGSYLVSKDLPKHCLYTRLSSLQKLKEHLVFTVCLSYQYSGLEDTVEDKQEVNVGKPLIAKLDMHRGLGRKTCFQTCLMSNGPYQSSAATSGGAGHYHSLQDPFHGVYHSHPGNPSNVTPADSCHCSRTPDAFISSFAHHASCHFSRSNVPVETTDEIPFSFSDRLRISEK

Data set [3] is described as follows: Thermodynamic Solubility (Ts) Assay in Fasted State Simulated Intestinal Fluid (FaSSIF). It counts as physicochemical. Conditions: thermodynamic from solid, FaSSIF pH 6.5, shake flask, 25° C., HPLC-UV. As to the method:
The solubilities of various compounds of formula (I) were determined using a thermodynamic solubility assay. The thermodynamic solubility assay employed the shake flask method followed by HPLC-UV analysis. The following stepwise procedure was followed:
Samples of no less than 2.0 mg were weighed into the lower chambers of Whatman mini-uniprep vials (catalog number UN203NPUORG) and 450 μL of FaSSIF media (0.056% (w/v) lecithin, 0.161% (w/v) sodium taurocholate, 0.39% (w/v) monobasic potassium phosphate, 0.77% (w/v) potassium chloride, deionized H2O, pH 6.5) was added into each vial.
After the buffer was added, the filter pistons of the mini-uniprep vials were placed to the position of the liquid level to ensure the full contact of buffer and compound with the filter during the incubation.
The samples were then vortexed for 2 minutes, after which they were incubated at 25° C. with shaking (880 rpm) for 24 hours.
The samples were then centrifuged at 4000 rpm (20° C.) for 10 min.
The miniunipreps were then compressed to prepare filtrates, and the test concentration of the compound in the filtrate was determined using HPLC-UV (Waters XBridge C18, 4.6*100 mm column; mobile phase A: 0.1% TFA in H2O; mobile phase B: 0.1% TFA in acetonitrile). At least 5 UV standard solutions (e.g. amiodarone hydrochloride, carbamazepine, dexamethasone) were injected into the HPLC from low to high concentration subsequently followed by testing of the thermodynamic solubility supernatants in duplicate. The solubilities of the tested compounds are given in μg/mL.

≈ marks a conversion by molar mass, not a printed value. Where only a bound is given, the exact number is not on record here.

The term IC50 denotes the point on the concentration scale where inhibition reaches its midpoint. One may read the solubility as the dissolved amount per volume that the medium holds. A higher solubility goes with much dissolved substance.

For `CO[C@@H](C)c1c(Nc2ccc([C@H](N(C)C(=O)C3CCS(=O)(=O)CC3)C(F)(F)F)cc2)cnc2nc(Cl)nn12` [Compound 1.1, N-[(1S)-1-[4-({2-chloro-7-[(1S)-1-methoxyethyl]-[1,2,4]triazolo[1,5-a]pyrimidin-6-yl}amino)phenyl]-2,2,2-trifluoroethyl]-N-methyl-1,1-dioxo-1λ^6-thiane-4-carboxamide], the fraction unbound at 4 h, 2 µM in data set [1] is > 0.2. Besides, the IC50 in data set [2] is 100 to 1000 nM; at full length MALT1, < 100 nM. The solubility at 24 h in data set [3] was 250 to 1750 µg/mL (≈ 435 to 3040 µM).
The corresponding values for `CO[C@@H](C)c1c(Nc2ccc([C@H](N(C)C(=O)C3CCC(F)(F)CC3)C(F)(F)F)cc2)cnc2nc(Cl)nn12` [Compound 1.8, N-[(1S)-1-[4-({2-chloro-7-[(1S)-1-methoxyethyl]-[1,2,4]triazolo[1,5-a]pyrimidin-6-yl}amino)phenyl]-2,2,2-trifluoroethyl]-4,4-difluoro-N-methylcyclohexane-1-carboxamide] are < 0.08, 100 to 1000 nM, 100 to 1000 nM and < 250 µg/mL.
On the same counts, the results for `CO[C@@H](C)c1c(Nc2ccc([C@H](N(C)C(=O)C3CN(C(C)=O)C3)C(F)(F)F)cc2)cnc2nc(Cl)nn12` [Compound 1.15, 1-acetyl-N-[(1S)-1-[4-({2-chloro-7-[(1S)-1-methoxyethyl]-[1,2,4]triazolo[1,5-a]pyrimidin-6-yl}amino)phenyl]-2,2,2-trifluoroethyl]-N-methylazetidine-3-carboxamide] are > 0.2, 100 to 1000 nM, 100 to 1000 nM and > 1750 µg/mL.
On the same counts, the results for `CC(C)c1c(Nc2ccc([C@H](N(C)C(=O)C3CCS(=O)(=O)CC3)C(F)(F)F)cc2)cnc2nc(Cl)nn12` [Compound 1.18, N-[(1S)-1-(4-{[2-chloro-7-(propan-2-yl)-[1,2,4]triazolo[1,5-a]pyrimidin-6-yl]amino}phenyl)-2,2,2-trifluoroethyl]-N-methyl-1,1-dioxo-1λ^6-thiane-4-carboxamide] are < 0.08, < 100 nM, < 100 nM and < 250 µg/mL.
On to `CC(=O)N1CCC(C(=O)N(C)[C@@H](c2ccc(Nc3cnc4nc(Cl)nn4c3C(C)C)cc2)C(F)(F)F)CC1` [Compound 1.19, 1-acetyl-N-[(1S)-1-(4-{[2-chloro-7-(propan-2-yl)-[1,2,4]triazolo[1,5-a]pyrimidin-6-yl]amino}phenyl)-2,2,2-trifluoroethyl]-N-methylpiperidine-4-carboxamide], for which, in data set [1], the fraction unbound at 4 h, 2 µM was < 0.08. Moreover, the IC50 (in data set [2]; at full length MALT1) was < 100 nM each time. For the same compound, the solubility at 24 h in data set [3] was < 250 µg/mL.
In the case of `CO[C@@H](C)c1c(Nc2ccc([C@H](N(C)C(=O)C3CCN(S(C)(=O)=O)C3)C(F)(F)F)cc2)cnc2nc(Cl)nn12` (stereo partly drawn) [Compound 3.10, N-[(1S)-1-[4-({2-chloro-7-[(1S)-1-methoxyethyl]-[1,2,4]triazolo[1,5-a]pyrimidin-6-yl}amino)phenyl]-2,2,2-trifluoroethyl]-1-methanesulfonyl-N-methylpyrrolidine-3-carboxamide], in data set [1], the fraction unbound at 4 h, 2 µM was 0.08 to 0.2. For the same compound, the IC50 (in data set [2]; on full length MALT1) was 100 to 1000 nM each time.
Regarding `CO[C@@H](C)c1c(Nc2ccc([C@H](N(C)C(=O)[C@H]3CC[C@H](C(N)=O)CC3)C(F)(F)F)cc2)cnc2nc(Cl)nn12` [Compound 8.1, (1r,4S)—N1-((S)-1-(4-((2-chloro-7-((S)-1-methoxyethyl)-[1,2,4]triazolo[1,5-a]pyrimidin-6-yl)amino)phenyl)-2,2,2-trifluoroethyl)-N1-methylcyclohexane-1,4-dicarboxamide], the fraction unbound at 4 h, 2 µM in data set [1] was in the range of 0.08 to 0.2. Also, the IC50 in data set [2] is 100 to 1000 nM; against full length MALT1, < 100 nM.
